Measured values from paper PMC10122656, “Siglec-6 mediates the uptake of extracellular vesicles through a noncanonical glycolipid binding pocket” (Nature Communications, 2023).
“And” between values parts separate entries of the source, which are not always exact repeats. Equal values may be shown once. Blank lines part the entries; values can stand above or below the compound they belong to.

What was measured:
memory B-cells = experiment: Liposome binding to peripheral blood memory B-cells by flow cytometry; assay type: cell-based, human
Experimental: 200,000 cells/well were plated into a 96-well U-bottom microplate and centrifuged at 300 × g for 5 min. The cells were then resuspended in 50 µL of 50 µM liposome/50 µg/mL (protein concentration) of EV solution in DMEM F12 5% FBS and incubated at 37 °C for 30 min. Excess liposomes were then removed via centrifuged at 300 × g for 5 min followed by washing the cells with FACS solution. The cells were then resuspended in (1:250 V/V) anti-Siglec-flow buffer (1% V/V FBS, 500 µM, EDTA Hank’s Balanced Salt Solution pH 7.4), solution and left to rest on ice for 30 min. The cells were then centrifuged again at 300 × g for 5 min and the cells were resuspended in FACS buffer solution and were then ready for analysis by flow cytometry. Information regarding antibody clone, catalog number supplier, label isotype, and dilution can be found in Supplementary Table 6. The Siglec-positive cells were gated on for liposome-binding analysis (Supplementary Fig. 1b).
Flow cytometry measurements were collected on a 5-laser Fortessa X-20 (BD Bioscience). All the resulting data were analyzed using FlowJo (10.5.3) software (BD Biosciences).

[1] = test system: syncytiotrophoblasts of placental explants; experiment: Liposome uptake assay in the placenta explants (confocal microscopy); assay type: cell-based, human; conditions: for liposome binding/uptake, fluorescence signal (replicates): cells not given
[2] = molecular target: T1, Daudi cells transduced with WT Siglec-6 (Homo sapiens, UniProt O43699); experiment: pHrodo internalization assay by flow cytometry; assay type: cell-based; conditions: for liposome internalization signal (replicates): sheet Figure S42b
T1 construct: expressed in transfected cells; host or cells: Daudi cells (human B-cell line), lentiviral transduction
Experimental: Siglec-6 lentivirus was produced as previously reported by Bhattacherjee, A. et al.[72]. Briefly, 1 × 10^6 HEK293T cells were plated in a 6-well dish containing 1.5 mL of DMEM growth medium (Gibco) containing 10% (V/V) fetal bovine serum (FBS; Gibco), 100 U/mL penicillin (Gibco) and 100 µg/mL streptomycin (Gibco). 24 h later, a mixture of 625 ng RP18, 625 ng RP19, 1250 ng hSiglec-6 vector, 7.5 µL TransIT®-LT1 Reagent (Mirus Bio), and Opti-MEM media (Gibco) was added to the HEK293T cells. Cells were incubated with this transfection mixture at 37 °C, 5% CO2 for 72 h. Following transfection, the cell supernatant was harvested and concentrated using Lenti-X concentrator reagent (Takara Bio) following the manufacturer’s instructions.
1.5 × 10^5 Daudi cells were plated in a 24-well plate in 250 µL of RPMI growth medium (Gibco) containing 10% (V/V) fetal bovine serum (FBS; Gibco), 100 U/mL penicillin (Gibco) and 100 µg/mL streptomycin (Gibco). A range of 10X concentrated lentivirus (1, 2, 5, 10 µL) was added to the corresponding wells and incubated for approximately 8 h at 37 °C, 5% CO2 in a tissue culture incubator. After incubation, the media in each well was topped up to 750 µL. Three days post-transduction, 200 µL of cells were plated in a 96-well U-bottom plate and centrifuged at 300 × g for 5 min. The cell pellets were resuspended in 150 µL of flow cytometry buffer (HBSS containing 1% (V/V) FBS, 500 µM EDTA) and the titer of each virus was determined by measuring the mAmentrine+ cells in each well by flow cytometry. The mAmetrine+ cells, ranging from 0.5% to 5%, were re-plated in six-well plates. The mAmetrine+ virally transduced cells were selected for using 300 µg/mL zeocin until the mAmetrine+ population was ≥95%.
Human peripheral blood, taken under an approved institutional ethics protocol, was centrifuged at 1700 × g for 5 min at 4 °C. The upper phase (plasma) was collected and centrifuged at 10,000 × g for 30 min at 4 °C. […]

[3] = Ganglioside content quantification in liposomes by ESI-MS; assay type: physicochemical; conditions: peer review file; Supplementary Table 1
Experimental: The average ganglioside content in a given liposome sample was measured by electrospray ionization mass spectrometry (ESI-MS) using an internal standard (IS)[70]. Briefly, the liposome sample was first disassembled in a methanol solution of 0.15% formic acid, and a known amount of IS was added. The solution was then analyzed by ESI-MS. The total ion abundance (Ab) ratio of the ganglioside (GSL) to the IS measured by ESI-MS is related to the corresponding solution concentration ratio by Eq. (1):1 R=AbGSL/AbIS=GSL/IS and thus the ganglioside concentration can be obtained from linear regression. The corrected ganglioside percentage (GSL%corr) and the ganglioside incorporation in the liposome can be found from Eqs. (2) and (3), respectively, where [GSL]nominal is the nominal concentration of the ganglioside used for liposome preparation:2 GSL%corr=[GSL]/[TotalLipid] 3 Incorporation=[GSL]/GSLnominal
The corresponding deuterium labeled gangliosides, N-ω-CD3-octadecanoyl monosialoganglioside GM2 (GM2-d3), and N-ω-CD3-octadecanoyl monosialoganglioside GM3 (GM3-d3), purchased form Matreya LLC (State College, PA), were used as IS for GM2 and GM3 content quantification, respectively. All these measurements were carried out in negative ion mode using a Q Exactive Hybrid Quadrupole-Orbitrap mass spectrometer coupled with the Nanospray Flex Ion Source (Thermo Fisher Scientific, Bremen, Germany). […]

T1 sequence (O43699 27-453): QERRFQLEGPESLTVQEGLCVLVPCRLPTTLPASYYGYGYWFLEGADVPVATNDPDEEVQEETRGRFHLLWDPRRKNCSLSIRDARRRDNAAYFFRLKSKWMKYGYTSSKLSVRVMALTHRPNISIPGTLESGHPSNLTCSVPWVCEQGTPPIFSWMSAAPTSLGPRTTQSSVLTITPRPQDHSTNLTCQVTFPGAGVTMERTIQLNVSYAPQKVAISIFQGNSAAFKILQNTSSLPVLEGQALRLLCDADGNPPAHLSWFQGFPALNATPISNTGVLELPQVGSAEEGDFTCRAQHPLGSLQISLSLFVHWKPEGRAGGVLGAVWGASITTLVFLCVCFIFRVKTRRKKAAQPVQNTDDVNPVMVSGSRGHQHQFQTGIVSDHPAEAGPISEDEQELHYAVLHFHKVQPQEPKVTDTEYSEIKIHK

liposome binding/uptake, fluorescence signal (replicates) ([1]; sheet Figure S31, 5% GM3-DAG liposomes + mAb): 5737 and 5556 and 5976
liposome binding/uptake, fluorescence signal (replicates) ([1]; sheet Figure S31, 5% GM3-DAG liposomes, no mAb): 20862 and 18720 and 19576
Compound: CCCCCCCCCCCCCCCCOCC(COCCCCCCCCCCCCCCCC)OCc1cn(CCO[C@@H]2O[C@H](CO)[C@@H](O[C@@H]3O[C@H](CO)[C@H](O)[C@H](O[C@]4(C(=O)O)C[C@H](O)[C@@H](NC(C)=O)[C@H]([C@H](O)[C@H](O)CO)O4)[C@H]3O)[C@H](O)[C@H]2O)nn1 [GM3-DAG]
liposome binding, fluorescence signal (replicates) (memory B-cells; sheet Figure S29, 5% GM3-DAG liposomes, cells not given): 361 and 385 and 363 and 344

pHrodo signal of 5 nGLLs in Siglec-6 Daudi cells ([2]; independent of Arg122, only at 37 °C): time-dependent increase in pHrodo signal
Compound: CCCCCCCCCCCCCCCCOCC(COCCCCCCCCCCCCCCCC)OCc1cn(CCO[C@@H]2O[C@H](CO)[C@@H](O[C@@H]3O[C@H](CO)[C@H](O)[C@H](O[C@]4(C(=O)O)C[C@H](O)[C@@H](NC(C)=O)[C@H]([C@H](O)[C@H](O)CO)O4)[C@H]3O)[C@H](O)[C@H]2O)nn1 [nGL 5]
5 nGLL binding to memory B-cells after pre-treatment with anti-Siglec-6 antibody (memory B-cells): Blocking of 5 nGLLs to human memory B-cells was achieved
5 nGLL binding to memory B-cells compared to naïve B-cells (memory B-cells; four healthy donors): significant binding
puncta of 5 nGLLs on syncytiotrophoblasts compared to naked liposomes ([1]; live human placental explants, 50 μM liposome, 2 h): significantly more puncta
5 nGLL interaction with syncytiotrophoblasts after pre-treatment with anti-Siglec-6 antibody ([1]; placental explants): blocked these interactions
colocalization of 5 nGLLs with Siglec-6 compared to naked liposomes ([1]; placental explants): strong colocalization

Compound: GM3
liposome internalization signal (replicates) ([2]; WT-4): 16.4 and 15.8 and 17.6 and 19.4
liposome internalization signal (replicates) ([2]; WT-37): 30.6 and 27.6 and 33.7 and 27.8
incorporation of ganglioside into liposomes [3]: 96%

Compound: GM2
incorporation of ganglioside into liposomes [3]: 98%
